pEC50, pIC50: −log10 of the molar value. Read-outs that look alike come from different tables or passages of the source.
Assays:
[1] = target: GDP-loaded wild-type KRAS (WT) (Homo sapiens (Human), UniProt P01116); experiment: KRAS (GDP) biochemical TR-FRET probe displacement assay, WT KRAS; assay type: binding; conditions: 2 hours
Experimental: (§1) KRAS (GDP) Biochemical Assays:
(§2) Compounds were serially diluted (1:3) in DMSO. The LabCyte ECHO Acoustic dispenser was used to pre-spot the assay plates (384-well Non-Binding Surface plates, Corning, Catalog #3824) with 50 nL of compound. 5 μL of 2× enzyme concentration was added to the pre-spotted plates and incubated for 30 minutes before adding 5 μL of 2× concentration of Eu-streptavidin and Cy-5 labelled probe (10 μL final reaction volume). The plates were incubated at room temperature for 2 hours before measuring TR-FRET ratio (665 nm/615 nm) on the Envision multimode plate reader. The ratios were normalized to a positive (saturating concentration of known inhibitor) and negative (DMSO) control and plotted against the log of compound concentration.

GDP-loaded KRAS-G12C = GDP-loaded KRAS-G12C (Homo sapiens (Human), UniProt P01116, G12C); experiment: KRAS (GDP) biochemical TR-FRET probe displacement assay, KRAS-G12C; assay type: binding; conditions: 2 hours
GDP-loaded KRAS-G12C, sequence (P01116-2 other isoform, or with tags, fused parts or gaps G12C): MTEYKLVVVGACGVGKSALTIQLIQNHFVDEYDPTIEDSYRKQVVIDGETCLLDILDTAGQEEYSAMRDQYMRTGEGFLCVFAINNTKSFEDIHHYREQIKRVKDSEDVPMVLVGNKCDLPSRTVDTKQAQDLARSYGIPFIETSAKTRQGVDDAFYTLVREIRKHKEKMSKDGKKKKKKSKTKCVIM
Experimental: as §1, §2

GDP-loaded KRAS-G12V = GDP-loaded KRAS-G12V (Homo sapiens (Human), UniProt P01116, G12V); experiment: KRAS (GDP) biochemical TR-FRET probe displacement assay, KRAS-G12V; assay type: binding; conditions: 2 hours
GDP-loaded KRAS-G12V, sequence (P01116-2 other isoform, or with tags, fused parts or gaps G12V): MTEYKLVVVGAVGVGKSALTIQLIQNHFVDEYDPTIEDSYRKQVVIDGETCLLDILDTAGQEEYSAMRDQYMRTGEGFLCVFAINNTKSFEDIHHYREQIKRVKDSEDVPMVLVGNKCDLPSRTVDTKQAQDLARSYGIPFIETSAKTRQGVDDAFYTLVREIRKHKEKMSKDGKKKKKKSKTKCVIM
Experimental: as §1, §2

GDP-loaded KRAS-G12D = GDP-loaded KRAS-G12D (Homo sapiens (Human), UniProt P01116, G12D); experiment: KRAS (GDP) biochemical TR-FRET probe displacement assay, KRAS-G12D; assay type: binding; conditions: 2 hours
GDP-loaded KRAS-G12D, sequence (P01116-2 other isoform, or with tags, fused parts or gaps G12D): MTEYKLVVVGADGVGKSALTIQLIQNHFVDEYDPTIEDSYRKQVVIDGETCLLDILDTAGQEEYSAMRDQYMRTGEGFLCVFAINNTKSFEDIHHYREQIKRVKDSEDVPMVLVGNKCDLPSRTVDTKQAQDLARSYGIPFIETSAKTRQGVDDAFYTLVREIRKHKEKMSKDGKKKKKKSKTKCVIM
Experimental: as §1, §2

[2] = system: cellular pERK in Kuramochi (WT KRAS) cell-line; experiment: Cell based pERK assay (HTRF), Kuramochi; conditions: Kuramochi (WT KRAS) cells, 2 hours incubation
Experimental: (§3) Compounds were tested in a 384-well assay format for their ability to inhibit cellular pERK in Kuramochi (WT KRAS), MIA-PaCa-2 (KRAS-G12C), ASPC-1 (KRAS G12D), and NCI-H441 (KRAS-G12V) cell-lines. Compounds were serially diluted (1:3) in DMSO. On day −1, 80 uL of cells were plated per well in the 384 well tissue-culture plates (Greiner: Cat #781080) to seed 5000 cells per wells of AsPC-1 or 7500 cells of MIA-PaCa-2, NCI-H441, and Kuramochi cell lines in RPMI (Corning: Cat #10-040-CM) with 10% fetal bovine serum (FBS) (HyClone: Cat #SH30071-03) and 1× penicillin-streptomycin-glutamate (PSG) (Corning: Cat #30-009-CI) for […] and Kuramochi cell lines and DMEM (Corning: Cat #15-018-CM) with […] and 1× PSG for MKA-PaCa-2 cell line. The plates were then incubated overnight at 37° C. and 5% CO2. On day 0, 400 nL of compound/well was added into the cell plates and mixed 5 times by pipetting using a Beckmann Biomek FX. The cell plates were then incubated for 2 hours at 37° C. and 5% CO2. HTRF Advanced Phospho-ERK1/2 ([…]) Detection Kits (PerkinElmer: Cat #64AERPEG) were used to prepare the lysis and detection solution according to manufacturer protocol. Following the 2 hour incubation, 70 μL of medium was aspirated from the plates and 10 uL of lysis and detection solution was added to the plates using a Biotek EL406 washer and dispenser. Plates were sealed and stored overnight at room temperature. HTRF ratio (665 nm/615 nm) was read by Envision multimode reader (PerkinElmer) the next day. The TR-FRET ratios were normalized to a positive (saturating concentration of known inhibitor) and negative (DMSO) control and plotted against the log of compound concentration. IC50 values were defined as the compound concentration that causes a […] in normalized signal and were calculated using a sigmoidal dose-response model to generate curve fits.

[3] = system: cellular pERK in MIA-PaCa-2 (KRAS-G12C) cell-line; experiment: Cell based pERK assay (HTRF), MIA-PaCa-2; conditions: MIA-PaCa-2 (KRAS-G12C) cells, 2 hours incubation, read-out: MIAPaCa2 pERK EC50
Experimental: as §3

[4] = system: cellular pERK in NCI-H441 (KRAS-G12V) cell-line; experiment: Cell based pERK assay (HTRF), NCI-H441; conditions: NCI-H441 (KRAS-G12V) cells, 2 hours incubation
Experimental: as §3

[5] = system: cellular pERK in ASPC-1 (KRAS G12D) cell-line; experiment: Cell based pERK assay (HTRF), ASPC-1; conditions: ASPC-1 (KRAS G12D) cells, 2 hours incubation
Experimental: as §3

GDP-loaded wild-type KRAS (WT), sequence (P01116-2 other isoform, or with tags, fused parts or gaps): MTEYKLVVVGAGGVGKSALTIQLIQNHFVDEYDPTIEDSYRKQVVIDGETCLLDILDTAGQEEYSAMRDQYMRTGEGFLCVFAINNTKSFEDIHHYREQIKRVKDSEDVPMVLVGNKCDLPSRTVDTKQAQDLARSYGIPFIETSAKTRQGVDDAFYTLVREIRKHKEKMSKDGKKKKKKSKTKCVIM

C#Cc1c(F)ccc2cc(O)cc(-c3nc4c5c(nc(OC[C@@]67CCCN6C[C@H](F)C7)nc5c3F)N3CCOCCC3CC4)c12 (mixture of isomers) [Example 6-13]
pIC50 [1]: 10.22
pIC50 (GDP-loaded KRAS-G12C): 10.22
pIC50 (GDP-loaded KRAS-G12V): 10.00
pIC50 (GDP-loaded KRAS-G12D): 9.82
pEC50 [2]: 8.80
pEC50 ([3]; Homo sapiens): 9.64
pEC50 ([4]; Homo sapiens): 8.67
pEC50 ([5]; Homo sapiens, ASPC1): 7.93

C#Cc1c(F)ccc2cc(O)cc(-c3c(F)c4c5c(nc(OC[C@@]67CCCN6C[C@H](F)C7)nc5c3F)N3CCCOC[C@@H]3CC4)c12 (mixture of isomers) [Example 6-21]
pIC50 [1]: 9.06
pIC50 (GDP-loaded KRAS-G12C): 9.27
pIC50 (GDP-loaded KRAS-G12V): 9.40
pIC50 (GDP-loaded KRAS-G12D): 9.06
pEC50 [2]: 8.23
pEC50 ([3]; Homo sapiens): 8.97
pEC50 ([4]; Homo sapiens): 8.75
pEC50 ([5]; Homo sapiens, ASPC1): 8.51

C#Cc1c(F)ccc2cc(O)cc(-c3nc4c5c(nc(OC[C@@]67CCCN6C[C@H](F)C7)nc5c3F)N3CCCCC3CCn3nncc3-4)c12 (mixture of isomers) [Example 11-1, 5-ethynyl-6-fluoro-4-(1-fluoro-14-(((2R,7aS)-2-fluorotetrahydro-1H-pyrrolizin-7a(5H)-yl)methoxy)-8,8a,9,10,11,12-hexahydro-7H-3,5,6,6a,12a,13,15-heptaazabenzo[4,5]cyclopenta[8,9]cyclonona[1,2,3-de]naphthalen-2-yl)naphthalen-2-ol]
pIC50 [1]: < 6.00
pIC50 (GDP-loaded KRAS-G12C): < 6.00
pIC50 (GDP-loaded KRAS-G12V): < 6.00
pIC50 (GDP-loaded KRAS-G12D): < 6.00
pEC50 [2]: < 6.00
pEC50 [3]: < 6.00
pEC50 [4]: < 6.00
pEC50 ([5]; read-out: AsPC1 pERK EC50): < 6.00

C#Cc1c(F)ccc2cccc(-c3nc4c5c(nc(OCC6(CN7CCCCC7)CC6)nc5c3F)N3CCCOC[C@@H]3CC4)c12 [Example 15-2]
pIC50 (GDP-loaded KRAS-G12C): 7.87
pIC50 (GDP-loaded KRAS-G12V): 7.77
pIC50 (GDP-loaded KRAS-G12D): 7.65
pEC50 [2]: 7.07
pEC50 ([3]; Homo sapiens): 6.94
pEC50 ([4]; Homo sapiens): 6.56
pEC50 ([5]; Homo sapiens, ASPC1): 6.67

C#Cc1c(F)ccc2cccc(-c3nc4c5c(nc(OC[C@@]67CCCN6[C@H](COC(=O)N(CC)CC)CC7)nc5c3F)N3CCCOC[C@@H]3CC4)c12 [Example 16-1, ((3S,7aS)-7a-((((S)-2-(8-ethynyl-7-fluoronaphthalen-1-yl)-1-fluoro-4,5,5a,6,9,10-hexahydro-8H-7-oxa-3,10a,11,13-tetraazanaphtho[1,8-ab]heptalen-12-yl)oxy)methyl)hexahydro-1H-pyrrolizin-3-yl)methyl diethylcarbamate]
pIC50 (GDP-loaded KRAS-G12C): 7.48
pIC50 (GDP-loaded KRAS-G12V): 7.51
pIC50 (GDP-loaded KRAS-G12D): 7.37
pEC50 [2]: 6.62
pEC50 ([3]; Homo sapiens): 6.64
pEC50 ([4]; Homo sapiens): 6.26
pEC50 ([5]; Homo sapiens, ASPC1): 6.19

C#Cc1c(F)ccc2cccc(-c3nc4c5c(nc(OC[C@@]67CCCN6[C@H](COC(=O)NCC)CC7)nc5c3F)N3CCCOC[C@@H]3CC4)c12 [Example 16-3]
pEC50 [2]: 8.28
pEC50 ([3]; Homo sapiens): 8.56
pEC50 ([4]; Homo sapiens): 7.90
pEC50 ([5]; Homo sapiens, ASPC1): 7.85

Oc1cc(-c2nc3c4c(nc(OC[C@@]56CCCN5C[C@H](F)C6)nc4c2F)N2CCCOC[C@@H]2CC3)c2c(Cl)cccc2c1 [Example 19-1, 5-chloro-4-((S)-1-fluoro-12-(((2R,7aS)-2-fluorotetrahydro-1H-pyrrolizin-7a(5H)-yl)methoxy)-4,5,5a,6,9,10-hexahydro-8H-7-oxa-3,10a,11,13-tetraazanaphtho[1,8-ab]heptalen-2-yl)naphthalen-2-ol]
pEC50 [2]: 6.24
pEC50 ([3]; Homo sapiens): < 6.00
pEC50 ([4]; Homo sapiens): < 6.00
pEC50 ([5]; Homo sapiens, ASPC1): < 6.00

C#Cc1c(F)ccc2cc(O)cc(-c3nc4c5c(nc(OC[C@@]67CCCN6C[C@H](F)C7)nc5c3F)N3CCCCC[C@@H]3CC4)c12 [Example 20-1, 5-ethynyl-6-fluoro-4-((R)-1-fluoro-12-(((2R,7aS)-2-fluorotetrahydro-1H-pyrrolizin-7a(5H)-yl)methoxy)-4,5,5a,6,7,8,9,10-octahydro-3,10a,11,13-tetraazanaphtho[1,8-ab]heptalen-2-yl)naphthalen-2-ol]
pEC50 [2]: 8.20
pEC50 ([3]; Homo sapiens): 8.06
pEC50 ([4]; Homo sapiens): 7.37
pEC50 ([5]; Homo sapiens, ASPC1): 7.37

C#Cc1c(F)ccc2cc(O)cc(-c3nc4c5c(nc(OC[C@@]67CCCN6C[C@@H](F)C7)nc5c3F)N3CCCOC[C@@H]3CC4)c12 [Example 22-1, 5-ethynyl-6-fluoro-4-((S)-1-fluoro-12-(((2S,7aS)-2-fluorotetrahydro-1H-pyrrolizin-7a(5H)-yl)methoxy)-4,5,5a,6,9,10-hexahydro-8H-7-oxa-3,10a,11,13-tetraazanaphtho[1,8-ab]heptalen-2-yl)naphthalen-2-ol]
pEC50 [2]: 8.09
pEC50 ([3]; Homo sapiens): 6.99
pEC50 ([4]; Homo sapiens): 7.26
pEC50 ([5]; Homo sapiens, ASPC1): 7.04

C#Cc1c(F)ccc2cc(O)cc(-c3nc4c5c(nc(OC[C@@]67CCCN6CC(=C)C7)nc5c3F)N3CCCOCC3CC4)c12 (stereo partly shown) [Example 22-2]
pEC50 [2]: 8.79
pEC50 ([3]; Homo sapiens): 9.74
pEC50 ([4]; Homo sapiens): 8.97
pEC50 ([5]; Homo sapiens, ASPC1): 8.83

C#Cc1c(F)ccc2cc(O)cc(-c3nc4c5c(nc(OC[C@@]67CCCN6C[C@@]6(CC6(F)F)C7)nc5c3F)N3CCCOC[C@@H]3CC4)c12 [Example 22-3]
pEC50 [2]: 8.59
pEC50 ([3]; Homo sapiens): 9.33
pEC50 ([4]; Homo sapiens): 8.93
pEC50 ([5]; Homo sapiens, ASPC1): 8.43

C#Cc1c(F)ccc2cc(O)cc(-c3nc4c5c(nc(OC[C@@]67CCCN6C[C@H](F)C7)nc5c3F)N3CCCOCC3C[C@@H]4O)c12 (stereo partly shown) [Example 22-5]
pEC50 [2]: 7.10
pEC50 ([3]; Homo sapiens): 7.15
pEC50 ([4]; Homo sapiens): 6.67
pEC50 ([5]; Homo sapiens, ASPC1): 6.89

C#Cc1c(F)ccc2cc(O)cc(-c3nc4c5c(nc(OC[C@@]67CCCN6C[C@H](F)C7)nc5c3F)N3CCCOCC3C[C@H]4F)c12 (stereo partly shown) [Example 22-6]
pEC50 [2]: 7.54
pEC50 ([3]; Homo sapiens): 7.76
pEC50 ([4]; Homo sapiens): 7.23
pEC50 ([5]; Homo sapiens, ASPC1): 7.01

C#Cc1c(F)c(F)cc2cc(N)cc(-c3nc4c5c(nc(OC[C@@]67CCCN6C[C@H](F)C7)nc5c3F)N3CCCOC[C@@H]3CC4)c12 [Example 23-1, 5-ethynyl-6,7-difluoro-4-((S)-1-fluoro-12-(((2R,7aS)-2-fluorotetrahydro-1H-pyrrolizin-7a(5H)-yl)methoxy)-4,5,5a,6,9,10-hexahydro-8H-7-oxa-3,10a,11,13-tetraazanaphtho[1,8-ab]heptalen-2-yl)naphthalen-2-amine]
pEC50 [2]: 9.02
pEC50 ([3]; Homo sapiens): 8.10
pEC50 ([4]; Homo sapiens): 8.50
pEC50 ([5]; Homo sapiens, ASPC1): 7.84

C#Cc1c(F)c(F)cc2cc(N)cc(-c3nc4c5c(nc(OC[C@@]67CCCN6C/C(=C\F)C7)nc5c3F)N3CCCOC[C@@H]3CC4)c12 [Example 23-2]
pEC50 [2]: 8.86
pEC50 ([3]; Homo sapiens): 9.06
pEC50 ([4]; Homo sapiens): 8.78
pEC50 ([5]; Homo sapiens, ASPC1): 8.27

C#Cc1c(F)c(F)cc2cc(N)cc(-c3nc4c5c(nc(OCC67CCCN6CCC7)nc5c3F)N3CCCOC[C@@H]3CC4)c12 [Example 23-3]
pEC50 [2]: 8.12
pEC50 ([3]; Homo sapiens): 7.69
pEC50 ([4]; Homo sapiens): 7.12
pEC50 ([5]; Homo sapiens, ASPC1): 6.98
